The results in this text go back to patent US8198438B2, “Pyrrolotriazine kinase inhibitors” (Bristol-Myers Squibb Company, priority 2007, dated 2012).

Assay type in all cases: biochemical
The target of test [1] is CDK2E (Homo sapiens, UniProt P24941). Put plainly: CDK 2/Cyclin E Kinase Assay. The following applies: ATP 30 μM; CDK2E 0.2 nM; Caliper LabChip 3000. As for the experimental part:
A. CDK 2/Cyclin E Kinase Assay
The assays were performed in U-bottom 384-well plates. The final assay volume was 30 μl prepared from 15 μl additions of enzyme and substrates (fluoresceinated CDK2E substrate peptide and ATP) and test compounds in assay buffer (100 mM HEPES pH 7.4, 10 mM MgCl2, 0.015% Brij35 and 4 mM DTT). The reaction was initiated by the combination of bacterially expressed, CDK2E with substrates and test compounds. The reaction was incubated at room temperature for 60 min. and terminated by adding 30 μl of 35 mM EDTA to each sample. The reaction mixture was analyzed on the Caliper LabChip 3000 by electrophoretic separation of the fluorescent substrate and phosphorylated product Inhibition data were calculated by comparison to no enzyme control reactions for 100% inhibition and vehicle-only reactions for 0% inhibition. The final concentration of reagents in the assays is ATP, 30 μM; FL-peptide, 1.5 μM; CDK2E, 0.2 nM; and DMSO, 1.6%. Dose response curves were generated to determine the concentration required inhibiting 50% of kinase activity (IC50). Compounds were dissolved at 10 mM in dimethylsulfoxide (DMSO) and evaluated at eleven concentrations, each in duplicate. IC50 values were derived by non-linear regression analysis.

Test [2] has as its target JAK2 (Homo sapiens, UniProt O60674). Put plainly: JAK2 kinase assay. The following applies: ATP 30 μM; activated JAK2; Caliper LabChip 3000. As for the experimental part: (§1) The assays were performed in U-bottom 384-well plates. The final assay volume was 30 μl prepared from 15 μl additions of enzyme and substrates (fluoresceinated peptide FL-JAK2 substrate and ATP) and test compounds in assay buffer (100 mM HEPES pH 7.2, 10 mM MgCl2, 0.015% Brij35, 25 mM β-glycerolphosphate and 4 mM DTT). The reaction was initiated by the combination of activated JAK2 with substrates and test compounds. The reaction was incubated at room temperature for 60 min. and terminated by adding 30 μl of 35 mM EDTA to each sample. The reaction mixture was analyzed on the Caliper LabChip 3000 (Caliper, Hopkinton, Mass.) by electrophoretic separation of the fluorescent substrate and phosphorylated product. Inhibition data were calculated by comparison to no enzyme control reactions for 100% inhibition and vehicle-only reactions for 0% inhibition. The final concentration of reagents in the assays is ATP, 30 μM; FL-JAK2 peptide, 1.5 μM; His-CDK5/p25, 2.6 nM; and DMSO, 1.6%.

Test [3] has as its target T1, GSK3-β (Homo sapiens, UniProt P49841).
T1 construct: His
Put plainly: GSK3-β kinase assay. The following applies: ATP 30 μM; His-GSK3B 2.4 nM; Caliper LabChip 3000; read-out: GSK-3β IC50. As for the experimental part:
as §1, with “FL-GSK” for “FL-JAK2”, “GSK3-β” for “activated JAK2”, “product” for “product.”, “FL-GSK substrate,” for “FL-JAK2 peptide,”, “His-GSK3B, 2.4” for “His-CDK5/p25, 2.6”

T1 sequence (P49841 whole entry): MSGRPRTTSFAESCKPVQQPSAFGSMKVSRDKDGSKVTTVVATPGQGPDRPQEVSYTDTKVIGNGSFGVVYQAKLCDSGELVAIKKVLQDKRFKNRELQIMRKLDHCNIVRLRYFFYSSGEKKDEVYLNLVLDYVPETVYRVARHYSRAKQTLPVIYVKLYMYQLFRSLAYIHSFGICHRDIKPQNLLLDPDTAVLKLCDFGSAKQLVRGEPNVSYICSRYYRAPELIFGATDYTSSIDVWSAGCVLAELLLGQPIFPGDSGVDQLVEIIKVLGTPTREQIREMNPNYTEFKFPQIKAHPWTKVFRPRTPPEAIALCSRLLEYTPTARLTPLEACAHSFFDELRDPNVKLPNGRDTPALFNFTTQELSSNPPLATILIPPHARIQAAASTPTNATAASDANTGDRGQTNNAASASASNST
Chain of JAK2 (O60674 whole entry): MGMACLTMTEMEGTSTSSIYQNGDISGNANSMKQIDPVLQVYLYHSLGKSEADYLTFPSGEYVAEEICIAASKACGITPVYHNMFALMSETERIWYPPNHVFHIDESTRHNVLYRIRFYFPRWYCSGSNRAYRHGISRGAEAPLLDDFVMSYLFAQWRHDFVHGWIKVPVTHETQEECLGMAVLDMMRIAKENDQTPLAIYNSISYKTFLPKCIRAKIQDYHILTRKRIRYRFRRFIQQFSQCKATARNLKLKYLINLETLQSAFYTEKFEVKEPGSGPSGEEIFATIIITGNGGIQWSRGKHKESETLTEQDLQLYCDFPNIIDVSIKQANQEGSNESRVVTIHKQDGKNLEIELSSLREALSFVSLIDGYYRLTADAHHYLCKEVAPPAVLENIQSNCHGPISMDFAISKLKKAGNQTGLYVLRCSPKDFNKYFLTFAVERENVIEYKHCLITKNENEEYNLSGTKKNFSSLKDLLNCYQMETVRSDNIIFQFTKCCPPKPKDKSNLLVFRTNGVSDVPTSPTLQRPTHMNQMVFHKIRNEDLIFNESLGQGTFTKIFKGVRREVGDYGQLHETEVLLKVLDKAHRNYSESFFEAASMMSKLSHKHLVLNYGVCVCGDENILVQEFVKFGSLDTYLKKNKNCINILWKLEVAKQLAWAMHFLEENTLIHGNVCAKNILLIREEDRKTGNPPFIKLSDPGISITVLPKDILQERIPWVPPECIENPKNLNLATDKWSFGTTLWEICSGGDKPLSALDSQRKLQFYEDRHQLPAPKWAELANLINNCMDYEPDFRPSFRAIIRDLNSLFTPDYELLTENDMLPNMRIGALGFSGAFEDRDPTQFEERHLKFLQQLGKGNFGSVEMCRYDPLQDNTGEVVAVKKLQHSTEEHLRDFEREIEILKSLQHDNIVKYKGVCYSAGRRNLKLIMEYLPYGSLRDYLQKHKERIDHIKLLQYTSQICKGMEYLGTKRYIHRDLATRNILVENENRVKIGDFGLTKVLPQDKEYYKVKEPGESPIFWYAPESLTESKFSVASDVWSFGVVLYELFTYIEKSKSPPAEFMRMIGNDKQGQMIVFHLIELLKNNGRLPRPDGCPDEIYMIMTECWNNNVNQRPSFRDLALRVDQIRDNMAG

By IC50 is commonly meant the midpoint of a concentration-inhibition curve. `O=C(C1CCNCC1)N1CCC[C@H]1c1nc(Nc2cc(C3CC3)[nH]n2)c2cccn2n1` [Example 6, (S)-(2-(4-(5-Cyclopropyl-1H-pyrazol-3-ylamino)pyrrolo[1,2-f][1,2,4]triazin-2-yl)pyrrolidin-1-yl)(piperidin-4-yl)methanone]: the IC50 in test [1] is 615 nM; in test [2] it was 10700 nM; in test [3] it was 92 nM.

For the compound `O=C(c1cc[nH]n1)N1CCC[C@H]1c1nc(Nc2cc(C3CC3)[nH]n2)c2cccn2n1` [Example 7, (S)-(2-(4-(5-Cyclopropyl-1H-pyrazol-3-ylamino)pyrrolo[1,2-f][1,2,4]triazin-2-yl)pyrrolidin-1-yl)(1H-pyrazol-3-yl)methanone], the values for the half-inhibitory concentration (IC50) in test [1], in test [2] and in test [3] were 54 nM, 36 nM and 51 nM, respectively.

As for `O=C(c1cnccn1)N1CCC[C@@H]1c1nc(Nc2cc(C3CC3)[nH]n2)c2cccn2n1` [Example 12, (R)-(2-(4-(5-Cyclopropyl-1H-pyrazol-3-ylamino)pyrrolo[1,2-f][1,2,4]triazin-2-yl)pyrrolidin-1-yl)(pyrazin-2-yl)methanone], the IC50 came out at 256 nM in test [1], 4480 nM in test [2] and 3 nM in test [3].

For `O=C(c1nccs1)N1CCC[C@@H]1c1nc(Nc2cc(C3CC3)[nH]n2)c2cccn2n1` [Example 15, (R)-(2-(4-(5-Cyclopropyl-1H-pyrazol-3-ylamino)pyrrolo[1,2-f][1,2,4]triazin-2-yl)pyrrolidin-1-yl)(thiazol-2-yl)methanone], the results for the IC50 in test [1], in test [2] and in test [3] were 162 nM, 324 nM and 11 nM, respectively.
